Results on six compounds are retold here after US6861390B2, “Derivatives of UK-2A” (priority 2001, dated 2005).

The test system of data set [1] is Rhizoctonia solani (RHIZSO). As to the kind of experiment: microbe, parasite or virus in culture. The format is cell-based. As to conditions: read-out: T10 RHIZSO in vitro Growth Inhibition.
Data set [2] concerns Mycosphaerella graminicola (Septoria tritici, SEPTTR). As to the kind of experiment: microbe, parasite or virus in culture. The format is cell-based. The note with it: Zymoseptoria tritici, read-out: T11 SEPTTR in vitro Growth Inhibition.
Data set [3] relates to Phytophthora infestans (PHYTIN). As to the kind of experiment: whole plant or invertebrate. As to conditions: in Solanum lycopersicum, 24 h, read-out: T3 PHYTIN in vivo 1 Day Protectant, control of fungal infection.
For a further data set, the system named is Ustilago maydis (USTIMA). As to the kind of experiment: microbe, parasite or virus in culture. The format is cell-based. As to conditions: Mycosarcoma maydis, read-out: T12 USTIMA in vitro Growth Inhibition.
Data set [4] concerns Erysiphe graminis (ERYSGT). The data set can be described thus: Powdery Mildew of Wheat, whole plant 24 Hour Protectant (T1). The note with it: Blumeria graminis, in Triticum aestivum, read-out: T1 ERYSGT in vivo 1 Day Protectant, control of fungal infection.
Data set [5] relates to Phytophthora infestans (PHYTIN). The data set can be described thus: microbe, parasite or virus in culture. The format is cell-based. The note with it: in Secale cereale, read-out: T8 PHYTIN in vitro Growth Inhibition.
Data set [6] deals with Magnaporthe grisea (Pyricularia oryzae, PYRIOR). As to the kind of experiment: microbe, parasite or virus in culture. It counts as cell-based. As to conditions: read-out: T9 PYRIOR in vitro Growth Inhibition.
Data set [7] concerns Septoria tritici (SEPTTR). The data set can be described thus: Leaf Blotch of Wheat, whole plant 24 Hour Protectant (T6). As to conditions: Zymoseptoria tritici; wheat (cultivar Monon), sprayed at 100 ppm, inoculated after 24 hours; read-out: T6 SEPTTR in vivo 1 Day Protectant, control of fungal infection.
In data set [8] the test system is Leptosphaeria nodorum (LEPTNO). As to the kind of experiment: Glume Blotch of Wheat, whole plant 24 Hour Protectant (T2). The note with it: Parastagonospora nodorum; wheat (cultivar Yuma), sprayed at 100 ppm, inoculated after 24 hours; read-out: T2 LEPTNO in vivo 1 Day Protectant, control of fungal infection.
Data set [9] concerns Stagonospora nodorum (Leptosphaeria nodorum, LEPTNO). The data set can be described thus: microbe, parasite or virus in culture. The format is cell-based. As to conditions: Parastagonospora nodorum, read-out: T7 LEPTNO in vitro Growth Inhibition.
In data set [10] the test system is Puccinia recondita (PUCCRT). The data set can be described thus: Brown Rust of Wheat, whole plant 24 Hour Protectant (T5). The note with it: wheat (cultivar Yuma), sprayed at 100 ppm, inoculated after 24 hours, read-out: T5 PUCCRT in vivo 1 Day Protectant, control of fungal infection.

Bounds are passed on as bounds.

What is called inhibition is the drop in the measured response relative to a control, in per cent. As a reminder, the melting point is the temperature, or range, at which the solid turns liquid. `COc1ccnc(C(=O)N[C@H]2COC(=O)[C@H](Cc3ccccc3)[C@@H](OC(=O)C(C)C)[C@H](C)OC2=O)c1OCOC(=O)c1ccccc1` [Compound 29] displayed a melting point of 65 to 70 °C. Also, the inhibition at 25 ppm in data set [1] is < 80%. In addition, in data set [2], the inhibition at 25 ppm is < 80%. For the same compound, the pest or weed control at 100 ppm in data set [3] is < 25%. For the same compound, the inhibition at 25 ppm in the data set on Ustilago maydis (USTIMA) was < 80%. In addition, in [4], the pest or weed control at 100 ppm lay in the range of 25 to 74%. The inhibition at 25 ppm in data set [5] is < 80%. For the same compound, in [6], the inhibition at 25 ppm was < 80%. For the same compound, in [7], the pest or weed control at 100 ppm is 75 to 100%. Also, in [8], the pest or weed control at 100 ppm was 75 to 100%. The inhibition at 25 ppm in [9] is > 80%. Also, the pest or weed control at 100 ppm in data set [10] was in the range of 75 to 100%.

`CCOCC(=O)OCOc1c(OC)ccnc1C(=O)N[C@H]1COC(=O)[C@H](Cc2ccccc2)[C@@H](OC(=O)C(C)C)[C@H](C)OC1=O` [Compound 31] yielded a melting point of 79 to 81 °C. The inhibition at 25 ppm in data set [1] was < 80%. Further, the inhibition at 25 ppm in data set [2] was < 80%. Also, the pest or weed control at 100 ppm in [3] is < 25%. Moreover, the inhibition at 25 ppm with Ustilago maydis (USTIMA) was < 80%. Further, the pest or weed control at 100 ppm in [4] is 25 to 74%. The inhibition at 25 ppm in [5] was < 80%. The inhibition at 25 ppm in data set [6] was > 80%. The pest or weed control at 100 ppm in data set [7] lay within 75 to 100%. The pest or weed control at 100 ppm in [8] was in the range of 75 to 100%. In addition, the inhibition at 25 ppm in data set [9] was > 80%. In data set [10], the pest or weed control at 100 ppm fell in the range of 75 to 100%.

In the case of `COc1ccnc(C(=O)N[C@H]2COC(=O)[C@H](Cc3ccccc3)[C@@H](OC(=O)C(C)C)[C@H](C)OC2=O)c1OCOC(=O)C1CCCC1` [Compound 33], the melting point lay in the range of 128 to 129 °C. For the same compound, the inhibition at 25 ppm in [1] is < 80%. Besides, the inhibition at 25 ppm in [2] was < 80%. Besides, in [3], the pest or weed control at 100 ppm was < 25%. Further, in the data set with Ustilago maydis (USTIMA), the inhibition at 25 ppm is < 80%. Moreover, the pest or weed control at 100 ppm in [4] was 25 to 74%. Also, the inhibition at 25 ppm in data set [5] is < 80%. Further, the inhibition at 25 ppm in data set [6] is > 80%. Also, the pest or weed control at 100 ppm in [7] fell in the range of 75 to 100%. Besides, the pest or weed control at 100 ppm in data set [8] was in the range of 75 to 100%. Moreover, the inhibition at 25 ppm in data set [9] was > 80%. Further, in [10], the pest or weed control at 100 ppm lay within 75 to 100%.

The compound `COC(=O)OCOc1c(OC)ccnc1C(=O)N[C@H]1COC(=O)[C@H](Cc2ccccc2)[C@@H](OC(=O)C(C)C)[C@H](C)OC1=O` [Compound 44] displayed a melting point of 140 to 144 °C. The inhibition at 25 ppm in data set [1] is < 80%. In addition, the inhibition at 25 ppm in data set [2] was > 80%. Besides, the pest or weed control at 100 ppm in data set [3] is < 25%. Further, the inhibition at 25 ppm in the data set on Ustilago maydis (USTIMA) is < 80%. Further, the pest or weed control at 100 ppm in data set [4] was 25 to 74%. Besides, the inhibition at 25 ppm in data set [5] is < 80%. Also, the inhibition at 25 ppm in data set [6] was < 80%. The pest or weed control at 100 ppm in data set [7] was 75 to 100%. In [8], the pest or weed control at 100 ppm fell in the range of 75 to 100%. Further, the inhibition at 25 ppm in data set [9] is > 80%. The pest or weed control at 100 ppm in [10] was 75 to 100%.

For the compound `COc1ccnc(C(=O)N[C@H]2COC(=O)[C@H](Cc3ccccc3)[C@@H](OCC(C)C)[C@H](C)OC2=O)c1OCOC(C)=O` [Compound 49], the melting point lay in the range of 130 to 131 °C. The inhibition at 25 ppm in data set [1] was < 80%. For the same compound, the inhibition at 25 ppm in data set [2] was > 80%. Besides, the pest or weed control at 100 ppm in data set [3] lay within 25 to 74%. Also, the inhibition at 25 ppm in the data set with Ustilago maydis (USTIMA) is < 80%. In addition, in [4], the pest or weed control at 100 ppm lay within 75 to 100%. Further, the inhibition at 25 ppm in [5] is < 80%. For the same compound, the inhibition at 25 ppm in data set [6] was > 80%. Moreover, in data set [7], the pest or weed control at 100 ppm is 75 to 100%. The pest or weed control at 100 ppm in data set [8] lay within 75 to 100%. Further, the inhibition at 25 ppm in data set [9] is > 80%. The pest or weed control at 100 ppm in data set [10] fell in the range of 75 to 100%.

`COc1ccnc(C(=O)N[C@H]2COC(=O)[C@H](Cc3ccccc3)[C@@H](OC3CCCC3)[C@H](C)OC2=O)c1OCOC(C)=O` [Compound 50] came in with a melting point of 130 to 132 °C. In data set [1], the inhibition at 25 ppm is < 80%. In data set [2], the inhibition at 25 ppm is < 80%. Further, the pest or weed control at 100 ppm in data set [3] lay in the range of 25 to 74%. Moreover, in the data set on Ustilago maydis (USTIMA), the inhibition at 25 ppm is < 80%. The pest or weed control at 100 ppm in [4] is 25 to 74%. Moreover, the inhibition at 25 ppm in data set [5] is < 80%. For the same compound, the inhibition at 25 ppm in data set [6] was > 80%. For the same compound, in data set [7], the pest or weed control at 100 ppm fell in the range of 75 to 100%. Further, the pest or weed control at 100 ppm in data set [8] was 75 to 100%. Moreover, in [9], the inhibition at 25 ppm is > 80%. Also, in [10], the pest or weed control at 100 ppm lay in the range of 75 to 100%.
